Measured values from patent US8778966B2, “Quinolinone derivatives as PARP and tank inhibitors” (Janssen Pharmaceutica, NV, priority 2007, dated 2014).
Read-outs that look alike come from different tables or passages of the source.

Key:
HCT116 cells = test: Mitotic arrest assay on HCT116 cells (phospho-histone H3 Ser10); format: cell-based, human; conditions: lowest active dose; for minimal effective concentration: Homo sapiens, HCT-116, HCT116 cells, read-out: Mitotic arrest HCT116 LAD (converted)
Summary of the method: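 Read-out is imaging of phospho-histone H3 Ser10 (Alexa Fluor 488) with Hoechst nuclear counting, after 6 h compound exposure at 37 °C, DMSO ≤0.1%. LAD is the lowest dose at which the blank-corrected value over SD exceeds 5; triplicates, low-count wells excluded.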

PC3 cells = test: EB1 Comet (microtubule disruption) assay; format: cell-based, human; conditions: Homo sapiens, read-out: EB1 pLAC (converted)
Summary of the method: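 Readout is loss of Eb1 plus-end foci, scored by immunofluorescence microscopy, in PC3 cells after 1 h compound treatment at 37 °C with 0.6% final DMSO. LAC is defined as the lowest concentration leaving at least 50% of cells without Eb1 foci.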

CCc1cc2ccc([C@](C)(C#N)Cc3ccccc3)cc2[nH]c1=O (single isomer, unassigned) [Compound 45]
minimal effective concentration (HCT116 cells): > 10 µM
minimal effective concentration (PC3 cells; PC-3, 1 h, 1 hour treatment): > 10 µM

CCc1cc2ccc([C@@](C)(C#N)Cc3ccccc3)cc2[nH]c1=O (single isomer, unassigned) [Compound 46]
minimal effective concentration (HCT116 cells): 0.316 µM
minimal effective concentration (PC3 cells; PC-3, 1 h, 1 hour treatment): 0.1 µM

CCc1cc2ccc(C(C)(C#N)CC3COc4ccccc4O3)cc2[nH]c1=O (single isomer, unassigned) [Compound 47]
Mitotic arrest HCT116 LAD (HCT116 cells; HCT116 cells, the values are: pLAD (−log M lowest active dose)): 5.5

CCc1cc2ccc([C@](C)(C#N)Cc3nc(OC)cc(OC)n3)cc2[nH]c1=O (single isomer, unassigned) [Compound 52]
minimal effective concentration (HCT116 cells): 3 µM
minimal effective concentration (PC3 cells; PC-3, 1 h, 1 hour treatment): 3.16 µM

CCc1cc2ccc([C@@](C)(C#N)Cc3nc(OC)cc(OC)n3)cc2[nH]c1=O (single isomer, unassigned) [Compound 53]
minimal effective concentration (HCT116 cells): 0.02 µM
minimal effective concentration (PC3 cells; PC-3, 1 h, 1 hour treatment): 0.0316 µM

CCc1cc2ccc(C(C)(C#N)Cc3cccc(C#C[Si](C)(C)C)c3)cc2[nH]c1=O (stereo not drawn) [Compound 1]
minimal effective concentration (HCT116 cells): 1 µM
minimal effective concentration (PC3 cells; PC-3, 1 h, 1 hour treatment): 1 µM

CCc1cc2ccc(C(C)(C#N)Cc3cccc(CN(C)C)c3)cc2[nH]c1=O (stereo not drawn) [Compound 7]
minimal effective concentration (HCT116 cells): 3.16 µM
minimal effective concentration (PC3 cells; PC-3, 1 h, 1 hour treatment): 3.16 µM

CCc1cc2ccc(C(C)(C#N)Cc3cccc(COC)c3)cc2[nH]c1=O (stereo not drawn) [Compound 8]
minimal effective concentration (HCT116 cells): 0.1 µM
minimal effective concentration (PC3 cells; PC-3, 1 h, 1 hour treatment): 0.316 µM

CCc1cc2ccc(C(C)(C#N)Cc3cccc(CO)c3)cc2[nH]c1=O (stereo not drawn) [Compound 9]
minimal effective concentration (HCT116 cells): 0.316 µM
minimal effective concentration (PC3 cells; PC-3, 1 h, 1 hour treatment): 1 µM

CCc1cc2ccc(C(C#N)(Cc3ccccc3)CC3CC3)cc2[nH]c1=O (stereo not drawn) [Compound 28]
minimal effective concentration (HCT116 cells): 3.16 µM

CC(C#N)(Cc1ccccc1)c1ccc2cc(CO)c(=O)[nH]c2c1 (stereo not drawn) [Compound 40]
minimal effective concentration (HCT116 cells): 3.16 µM

CCc1cc2ccc(C(C)(C#N)Cc3c(F)ccc(C)c3F)cc2[nH]c1=O (stereo not drawn) [Compound 41]
minimal effective concentration (HCT116 cells): 0.316 µM
minimal effective concentration (PC3 cells; PC-3, 1 h, 1 hour treatment): 0.316 µM

CCc1cc2ccc(C(C)(C#N)Cc3nnsc3Cl)cc2[nH]c1=O (stereo not drawn) [Compound 42]
minimal effective concentration (HCT116 cells): 0.1 µM
minimal effective concentration (PC3 cells; PC-3, 1 h, 1 hour treatment): 0.1 µM

CCc1cc2ccc(C(C)(C#N)Cc3nc(OC)cc(OC)n3)cc2[nH]c1=O (stereo not drawn) [Compound 43]
minimal effective concentration (HCT116 cells): 0.0316 µM

CCc1cc2ccc(C(C)(C#N)Cc3ccccc3)cc2[nH]c1=O (stereo not drawn) [Compound 44]
minimal effective concentration (HCT116 cells): 0.316 µM

CCc1cc2ccc(C(C)(C#N)Cc3cccc(Br)c3)cc2[nH]c1=O (stereo not drawn) [Compound 49]
minimal effective concentration (HCT116 cells): 0.1 µM
minimal effective concentration (PC3 cells; PC-3, 1 h, 1 hour treatment): 0.316 µM

CCOP(=O)(OCC)c1cccc(CC(C)(C#N)c2ccc3cc(CC)c(=O)[nH]c3c2)c1 (stereo not drawn) [Compound 50]
minimal effective concentration (HCT116 cells): 0.316 µM
minimal effective concentration (PC3 cells; PC-3, 1 hour treatment): 0.316 µM

CCc1cc2ccc(C(C)(C#N)Cc3cccc(C#N)c3)cc2[nH]c1=O (stereo not drawn) [Compound 51]
minimal effective concentration (HCT116 cells): 0.1 µM
minimal effective concentration (PC3 cells; PC-3, 1 h, 1 hour treatment): 0.316 µM

CCc1cc2ccc(C(C)(C#N)CCOc3ccc([N+](=O)[O-])cc3)cc2[nH]c1=O (stereo not drawn) [Compound 54]
minimal effective concentration (HCT116 cells): 0.1 µM
minimal effective concentration (PC3 cells; PC-3, 1 h, 1 hour treatment): 0.316 µM

CCc1cc2ccc(C(C)(C#N)Cc3cccc(CN4CCN(C)CC4)c3)cc2[nH]c1=O (stereo not drawn) [Compound 57]
minimal effective concentration (HCT116 cells): > 10 µM

CCc1cc2ccc(C(C)(C#N)Cc3cccc(CN4CCOCC4)c3)cc2[nH]c1=O (stereo not drawn) [Compound 58]
minimal effective concentration (HCT116 cells): 3.16 µM
minimal effective concentration (PC3 cells; PC-3, 1 h, 1 hour treatment): 3.16 µM

CCc1cc2ccc(C(C)(C#N)Cc3cccc(CNC)c3)cc2[nH]c1=O (stereo not drawn) [Compound 59]
minimal effective concentration (HCT116 cells): 10 µM
minimal effective concentration (PC3 cells; PC-3, 1 h, 1 hour treatment): 10 µM

CCc1cc2ccc(C(C)(C#N)Cc3cccc(CNCCOC)c3)cc2[nH]c1=O (stereo not drawn) [Compound 60]
minimal effective concentration (HCT116 cells): 1 µM

CCc1cc2ccc(C(C)(C#N)Cc3cccc(CNCCN4CCOCC4)c3)cc2[nH]c1=O (stereo not drawn) [Compound 61]
minimal effective concentration (HCT116 cells): 10 µM

CCc1cc2ccc(C(C)(C#N)Cc3cccc(C(=O)NCCOC)c3)cc2[nH]c1=O (stereo not drawn) [Compound 62]
minimal effective concentration (HCT116 cells): 1 µM

CCc1cc2ccc(C(C)(C#N)Cc3cccc(C(=O)N(C)C)c3)cc2[nH]c1=O (stereo not drawn) [Compound 63]
minimal effective concentration (HCT116 cells): 0.316 µM
minimal effective concentration (PC3 cells; PC-3, 1 h, 1 hour treatment): 3.16 µM

CCc1cc2ccc(C(C)(C#N)Cc3cccc(N4CCNCC4)c3)cc2[nH]c1=O (stereo not drawn) [Compound 64]
minimal effective concentration (HCT116 cells): 3.16 µM

CCc1cc2ccc(C(C)(C#N)Cc3cccc(N4CCCCC4)c3)cc2[nH]c1=O (stereo not drawn) [Compound 65]
minimal effective concentration (HCT116 cells): 1 µM

CCc1cc2ccc(C(C)(C#N)Cc3cccc(N4CCN(C)CC4)c3)cc2[nH]c1=O (stereo not drawn) [Compound 66]
minimal effective concentration (HCT116 cells): 3.16 µM

CCc1cc2ccc(C(C)(C#N)Cc3cccc(OCC4CC4)c3)cc2[nH]c1=O (stereo not drawn) [Compound 67]
minimal effective concentration (HCT116 cells): 0.316 µM
minimal effective concentration (PC3 cells; PC-3, 1 h, 1 hour treatment): 0.316 µM

CCc1cc2ccc(C(C)(C#N)Cc3cccc(OCCCN4CCOCC4)c3)cc2[nH]c1=O (stereo not drawn) [Compound 68]
minimal effective concentration (HCT116 cells): 10 µM

CCc1cc2ccc(C(C)(C#N)Cc3cccc(OCCCN4CCN(C)CC4)c3)cc2[nH]c1=O (stereo not drawn) [Compound 69]
minimal effective concentration (HCT116 cells): 10 µM

Cc1cc2ccc(C(C)(C#N)Cc3noc(-c4cccc(C(F)(F)F)c4)n3)cc2[nH]c1=O (stereo not drawn) [Compound 70]
minimal effective concentration (HCT116 cells): 1 µM
minimal effective concentration (PC3 cells; PC-3, 1 h, 1 hour treatment): 3.16 µM

Cc1cc2ccc(C(C)(C#N)Cc3cc4ccccc4s3)cc2[nH]c1=O (stereo not drawn) [Compound 71]
minimal effective concentration (HCT116 cells): 0.316 µM
minimal effective concentration (PC3 cells; PC-3, 1 h, 1 hour treatment): 1 µM

Cc1cc2ccc(C(C)(C#N)Cc3ccc(Cl)s3)cc2[nH]c1=O (stereo not drawn) [Compound 72]
minimal effective concentration (HCT116 cells): 0.1 µM
minimal effective concentration (PC3 cells; PC-3, 1 h, 1 hour treatment): 0.316 µM

Cc1cc2ccc(C(C)(C#N)Cc3ccc(C(F)(F)F)o3)cc2[nH]c1=O (stereo not drawn) [Compound 73]
minimal effective concentration (HCT116 cells): 0.316 µM
minimal effective concentration (PC3 cells; PC-3, 1 h, 1 hour treatment): 1 µM

Cc1cc2ccc(C(C)(C#N)Cc3cccc4cccnc34)cc2[nH]c1=O (stereo not drawn) [Compound 74]
minimal effective concentration (HCT116 cells): 0.316 µM
minimal effective concentration (PC3 cells; PC-3, 1 h, 1 hour treatment): 3.16 µM

Cc1cc2ccc(C(C)(C#N)Cc3nc4ccccc4s3)cc2[nH]c1=O (stereo not drawn) [Compound 75]
minimal effective concentration (HCT116 cells): 0.1 µM
minimal effective concentration (PC3 cells; PC-3, 1 h, 1 hour treatment): 0.316 µM

CCc1cc2ccc(C(C)(C#N)Cc3c(C)c(C)cc(C)c3C)cc2[nH]c1=O (stereo not drawn) [Compound 88]
minimal effective concentration (HCT116 cells): 1 µM

CCc1cc2ccc(C(C)(C#N)Cc3c(C)c(C)c(C)c(C)c3C)cc2[nH]c1=O (stereo not drawn) [Compound 89]
minimal effective concentration (HCT116 cells): 3.16 µM

CCc1cc2ccc(C(C)(C#N)Cc3nncn3C)cc2[nH]c1=O (stereo not drawn) [Compound 93]
minimal effective concentration (HCT116 cells): 1 µM

CCc1cc2ccc(C(C)(C#N)Cc3cccc4nnn(C)c34)cc2[nH]c1=O (stereo not drawn) [Compound 94]
minimal effective concentration (HCT116 cells): 3.16 µM

CCc1cc2ccc(C(C)(C#N)Cc3nn(C)c4ccccc34)cc2[nH]c1=O (stereo not drawn) [Compound 95]
minimal effective concentration (HCT116 cells): 0.1 µM

CCc1cc2ccc(C(C)(C#N)Cc3cn4ccccc4n3)cc2[nH]c1=O (stereo not drawn) [Compound 96]
minimal effective concentration (HCT116 cells): 1 µM

CCc1cc2ccc(C(C)(C#N)Cc3cccnc3)cc2[nH]c1=O (stereo not drawn) [Compound 97]
minimal effective concentration (HCT116 cells): 3.16 µM

CCc1cc2ccc(C(C)(C#N)Cc3ccncc3)cc2[nH]c1=O (stereo not drawn) [Compound 98]
minimal effective concentration (HCT116 cells): > 10 µM

CCc1cc2ccc(C(C)(C#N)CCOc3ccccc3C#N)cc2[nH]c1=O (stereo not drawn) [Compound 276]
minimal effective concentration (HCT116 cells): 1 µM

CCc1cc2ccc(C(C)(C#N)CCOc3cc(Cl)c(Cl)cc3Cl)cc2[nH]c1=O (stereo not drawn) [Compound 277]
minimal effective concentration (HCT116 cells): 0.3 µM
